Data as given in paper PMC9525908, “α-Crystallin chaperone mimetic drugs inhibit lens γ-crystallin aggregation: Potential role for cataract prevention” (The Journal of Biological Chemistry, 2022).
Entries after “also recorded” stand apart in the source; their conditions may differ.

Columns and labels:
[1] = target: T1, HγD-ox (Homo sapiens, UniProt P07320); assay: Turbidity (600 nm) of oxidized HγD heated 10 min at 72 °C; format: biochemical; details: 1.4 mg/ml with DTPA, 100 and 500 μM bis-ANS, 100 μM drug C, 500 μM drug M
T1 construct: made in house; host or cells: Escherichia coli BL21(DE3) pLysS, pET3d vector
T1 sequence (P07320 1-174): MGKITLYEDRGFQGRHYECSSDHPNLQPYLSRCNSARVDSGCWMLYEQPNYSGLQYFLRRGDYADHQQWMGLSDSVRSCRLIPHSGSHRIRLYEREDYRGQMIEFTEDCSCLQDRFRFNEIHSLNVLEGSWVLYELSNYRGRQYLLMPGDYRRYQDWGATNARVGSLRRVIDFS
From the text: In postsubmission experiments, we attempted to find mechanistic clues relevant to the use of an H2O2 oxidation step prior to the thermal stress used during the initial drug screen. For this reason, we did a comparative study of oxidized (HγD-ox) versus native HγD (HyD-nat), hypothesizing that bis-ANS would both act like the drugs and provide information on the role of exposed hydrophobicity ([40]). HγD was oxidized in diethylenetriaminepentaacetic acid […] phosphate buffer to facilitate hydroxyl radical formation and protein damage, followed by dialysis against DTPA-treated buffer to eliminate the known proaggregating effects of divalent metals ([32]) in the subsequent steps. […] Overall protective effects were more pronounced for the oxidized than nonoxidized form of HγD. […] In the hope to obtain clues on the impact of bis-ANS, drugs C, G, and M on protein aggregation status, native PAGE was performed (Fig. 3G). Polymers greater than 250 kD are present in unheated HγD-nat but only the size of 75 to 100 kD in HγD-ox. […] Other techniques will be needed to assess the relationship between drugs and aggregate size.

[2] = target: T2, WT-HγD crystallin (Homo sapiens, UniProt P07320); assay: Thermal unfolding of WT-HγD by fluorescence ratio (Tm); format: biochemical; details: for Tm: 10 μM WT-HγD, 100 μM drug, fluorescence ratio 360/330 nm, control 81 °C; for Tm of HγD-nat: 100 μM agent, 360/320 nm ratio, 78 ± 0.1 °C without agent; for Elevation of Tm of HγD: versus control 81 °C
T2 construct: made in house; host or cells: E. coli BL21(DE3) pLysS, pET3d vector
T2 sequence (P07320 1-174): T1 sequence (P07320 1-174)
From the text: His-tag free recombinant HγD crystallin produced in Escherichia coli using pET3d or pET17b expression vector was used to investigate the effects of compounds C and G against thermal-induced unfolding and aggregate formation. The antiaggregation potency of drug C and G was reconfirmed by dynamic light scattering (DLS) (Fig. 2A). […] There is a decrease in the size of aggregates from as high as 7261 nm without drugs to 30.5 nm with drug C and 84.9 nm with drug G. Drug M has moderate activity with mean aggregate size of 569 nm radius (Table S2). […] Furthermore, we investigated whether these drugs can prevent thermal unfolding of HγD (Fig. 2C). […] It is the temperature at which 50% of the protein unfolds.
Thermal denaturation study was monitored using fluorescence spectroscopy. Protein solutions (10 μM) in the presence and absence of drugs or bis-ANS (100 μM) were heated continuously from 30 to 95 °C, and the fluorescence data were collected every 5 °C after 1 min equilibration at the given temperature. Unfolding data were fit to Greene and Pace’s two-state model ([82]) using GraphPad Prism software (GraphPad Software, Inc).

[3] = test system: Total mouse gamma crystallins; assay: H2O2 oxidation-mediated aggregation of total mouse γ-crystallins, 600 nm; format: biochemical; details: 2.5 mg/ml, H2O2, 18 h at 37 °C
Description: In preparation for possible in vivo testing, the drugs were tested against native mouse γ-crystallins. Total gamma crystallins (2.5 mg/ml) were incubated with H2O2 for 18 h at 37 °C with increasing concentrations of drugs X, C, and G, or a combination thereof. Oxidative stress–mediated aggregation at 600 nm was suppressed by drug C but poorly by drug G (Fig. S4A, left panel). […] The baseline increase at 50 μM could reflect a destabilizing effect of the drugs because of a pro-oxidative mechanism followed by stabilizing chaperone-like effect. […] There is 52.6% more aggregation of OPJ-MγS in comparison to WT-MγS under same conditions of thermal stress. […] Fluorescence microscopy using Nile Red provides a pictorial rendition of the type and size of aggregates formed on heating WT-MγS and OPJ-MγS, with and without drugs (Fig. S4F). […] The bis-ANS fluorescence inhibition pattern is again in complete agreement with the previous results for HγD (Fig. 2F). […] As for the reproducibility of these findings, see Fig. S7 and the warning note under Rigor and reproducibility section.

[4] = target: T3, 15N-labeled HyD (Homo sapiens, UniProt P07320); assay: NMR HSQC of 15N-labeled HyD with drug C; format: binding; details: 100 μM protein, 600 μM drug C, 5% DMSO
T3 sequence (P07320 1-174): T1 sequence (P07320 1-174)

[5] = target: T4, HγD (Homo sapiens, UniProt P07320); details: 600 μM drug C, tested by an outside laboratory; cited from earlier work
T4 construct: made in house; host or cells: E. coli BL21(DE3) pLysS, pET3d vector
T4 sequence (P07320 1-174): T1 sequence (P07320 1-174)

| SMILES | Effect on aggregation/turbidity of HγD-ox [1] | Tm [2] | Tm of HγD-nat [2] | Elevation of Tm of HγD [2] | Oxidative stress–mediated aggregation at 600 nm [3] | HSQC spectra, drug-treated versus control sample [4] | Effect on heat-mediated aggregation of HγD [5] |
| --- | --- | --- | --- | --- | --- | --- | --- |
| O=C(O)CCCCCCCCCCCC[C@@H]1C=CCC1 [drug M, Chaulmoogric acid] | strongly suppressed; also recorded: protected oxidized HγD |  |  |  |  |  |  |
| CC(C)=CCC[C@]1(C)C=Cc2c(O)c3c(c(CC=C(C)C)c2O1)O[C@]12C(=C[C@@H]4C[C@H]1C(C)(C)O[C@@]2(C/C=C(/C)C(=O)O)C4=O)C3=O [drug G, Gambogic acid] |  | 85 °C | increased all Tm values to the maximum value | 4 °C | poorly |  |  |
| Cc1cc(C(C#N)c2ccc(Cl)cc2)c(Cl)cc1NC(=O)c1cc(I)cc(I)c1O (stereo not drawn) [drug C, Closantel] | strongly suppressed | 85 °C | increased all Tm values to the maximum value | 4 °C | suppressed | no significant differences | worsening |
